In PubChem BioAssay (NCI):
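48-hour exposure; five concentrations; linearly interpolated endpoints. TGI marks complete inhibition of growth.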

Columns and labels:
Assay in all cases: NCI-60 cell line screen, 48 h
MDA-MB-231 breast = system: MDA-MB-231 breast
HOP-92 NSCLC = system: HOP-92 NSCLC
OVCAR-8 ovarian = system: OVCAR-8 ovarian
UO-31 renal = system: UO-31 renal
SF-268 CNS = system: SF-268 CNS
NCI/ADR-RES ovarian = system: NCI/ADR-RES ovarian
SK-MEL-2 melanoma = system: SK-MEL-2 melanoma
T-47D breast = system: T-47D breast
OVCAR-3 ovarian = system: OVCAR-3 ovarian
786-0 renal = system: 786-0 renal
OVCAR-4 ovarian = system: OVCAR-4 ovarian
OVCAR-5 ovarian = system: OVCAR-5 ovarian
PC-3 prostate = system: PC-3 prostate
SK-MEL-28 melanoma = system: SK-MEL-28 melanoma
SK-OV-3 ovarian = system: SK-OV-3 ovarian
ACHN renal = system: ACHN renal
NCI-H23 lung = system: NCI-H23 lung
TK-10 renal = system: TK-10 renal
MALME-3M melanoma = system: MALME-3M melanoma

Row | SMILES | TGI (MDA-MB-231 breast) [µM] | TGI (HOP-92 NSCLC) [µM] | TGI (OVCAR-8 ovarian) [µM] | TGI (UO-31 renal) [µM] | TGI (SF-268 CNS) [µM] | TGI (NCI/ADR-RES ovarian) [µM] | TGI (SK-MEL-2 melanoma) [µM] | TGI (T-47D breast) [µM] | TGI (OVCAR-3 ovarian) [µM] | TGI (786-0 renal) [µM] | TGI (OVCAR-4 ovarian) [µM] | TGI (OVCAR-5 ovarian) [µM] | TGI (PC-3 prostate) [µM] | TGI (SK-MEL-28 melanoma) [µM] | TGI (SK-OV-3 ovarian) [µM] | TGI (ACHN renal) [µM] | TGI (NCI-H23 lung) [µM] | TGI (TK-10 renal) [µM] | TGI (MALME-3M melanoma) [µM]
1 | N#CCCN(CCC#N)c1ccc(C(N=Nc2ccc(Cl)cc2)=Nc2ccccc2)cc1 | 33.8 | 32.3 | 28.7 | 21.3 | 27.1 | 24.2 | 13.9 | 27.2 | 22.1 | 28 | 26 | 26 | 25.5 | 30 | 27.1 | 27.2 | 25.7 | 29.1 | –
2 | C[C@@H](CC(=O)O)OC1OC(COC(=O)C(C)(C)C)C(OC(=O)C(C)(C)C)C(OC(=O)C(C)(C)C)C1OC(=O)C(C)(C)C (some centres undefined) | > 100 | > 100 | > 100 | – | > 100 | > 100 | > 100 | > 100 | > 100 | > 100 | – | > 100 | > 100 | > 100 | > 100 | 64.4 | 93.5 | > 100 | –
3 | CC(=O)NC1C(OC(C)C(=O)NC(C(=O)NC(CCC(=O)NCCCNC2c3ccccc3Nc3cccc([N+](=O)[O-])c32)C(N)=O)C(C)C)C(O)C(CO)OC1(C)OCc1ccccc1 (centres undefined) | 3.02 | – | 3.28 | 2.73 | 3.3 | 4.76 | 3.56 | 4.16 | 2.85 | 2.35 | 3.64 | 9.44 | 3.33 | – | 3.33 | 2.19 | 3.3 | 0.695 | 2.69
4 | CC(=O)N1c2ccccc2C2=NN(C)C(=N)SC21 (centres undefined) | > 100 | – | > 100 | > 100 | > 100 | > 100 | > 100 | > 100 | > 100 | > 100 | > 100 | > 100 | > 100 | > 100 | – | > 100 | > 100 | > 100 | > 100
5 | CC1=NN(c2nc(N)nc(CSc3cc(Cl)c(C)cc3S(N)(=O)=O)n2)C(C)(C)C1 | > 10 | – | > 10 | 0.953 | > 10 | > 10 | > 10 | > 10 | > 10 | > 10 | > 10 | > 10 | > 10 | > 10 | > 10 | > 10 | > 10 | > 10 | > 10
6 | CCOc1ccccc1NC(=O)C(=O)C(/C(=N/N)C(=O)OC)c1nc2ccc([N+](=O)[O-])cc2[nH]c1=O (centres undefined) | > 100 | > 100 | > 100 | – | > 100 | > 100 | > 100 | > 100 | > 100 | > 100 | > 100 | > 100 | > 100 | > 100 | > 100 | – | – | > 100 | > 100
7 | COc1ccc(C2C(C#N)=C(S)N(C3OC(COC(C)=O)C(OC(C)=O)C(OC(C)=O)C3OC(C)=O)C(C)=C2C(C)=O)cc1 (centres undefined) | > 100 | > 100 | – | > 100 | > 100 | > 100 | > 100 | 83.1 | > 100 | > 100 | > 100 | > 100 | > 100 | > 100 | > 100 | > 100 | > 100 | > 100 | > 100
8 | CSc1nc(Nc2ccccc2Cl)c2c(N)nn(C)c2n1 | > 100 | – | > 100 | > 100 | > 100 | > 100 | > 100 | 63.5 | > 100 | > 100 | > 100 | > 100 | > 100 | > 100 | > 100 | 26 | > 100 | > 100 | > 100
9 | Cc1ccc(S(=O)(=O)NC(=O)Nc2cccc(S(N)(=O)=O)c2)cc1 | > 100 | > 100 | – | > 100 | > 100 | > 100 | > 100 | > 100 | > 100 | > 100 | > 100 | > 100 | > 100 | > 100 | > 100 | > 100 | > 100 | > 100 | > 100
10 | COc1ccc2c(c1)CC1COc3cc(OC)ccc3C1O2 (centres undefined) | > 100 | > 100 | > 100 | > 100 | > 100 | > 100 | > 100 | > 100 | > 100 | > 100 | – | > 100 | > 100 | – | > 100 | – | > 100 | > 100 | > 100
11 | S=C=Nc1ccc(CSc2nc3ccccc3[nH]2)cc1 | 51.6 | 32 | 32.3 | 34.8 | 37.8 | 33 | 34.8 | 31.8 | – | 37.5 | 31.6 | 32.4 | 32 | 37.3 | 40.3 | 30.5 | 32.7 | 38.9 | 32
12 | CC(C)=NNc1snnc1C(N)=O | > 100 | – | > 100 | > 100 | > 100 | > 100 | > 100 | > 100 | > 100 | > 100 | – | > 100 | > 100 | > 100 | > 100 | > 100 | > 100 | > 100 | > 100
13 | O=c1cc(-c2ccccc2)[nH]c2ccc(S)cc12 | > 100 | 91.5 | > 100 | – | > 100 | 56.3 | – | 68 | > 100 | > 100 | > 100 | > 100 | > 100 | 64.6 | > 100 | 99.7 | > 100 | 79.6 | 57.7
